Several values for one entry are separate records, joined by “and”; a condition that tells them apart may be missing. Identical values can stand only once.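 48-hour exposure; five concentrations; linearly interpolated endpoints. GI50 = concentration required for 50% inhibition of growth. TGI: concentration producing complete growth inhibition.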
These compounds were tested on NCI/ADR-RES ovarian (assay: NCI anticancer screen, dose series, 48 h).

Row | Structure (SMILES) | TGI [µM] | GI50 [µM]
1 | C/C(=N\NC(=S)N1CCCCCC1)c1ccccn1 | 3.32 | –
2 | Oc1ccc2ccccc2c1N=Nc1ccc(Br)cc1 | > 100 | –
3 | CC(C)=CCc1cc2c(cc1O)OC[C@H]1c3cc4c(cc3O[C@@H]21)OCO4 | 76.1 | –
4 | COc1ccc(Cn2c(N)c(S(=O)(=O)c3ccc(Cl)cc3)c3nc(C#N)c(C#N)nc32)cc1 | 6 | 1.15

The compounds below were run on SNB-75 CNS (assay: NCI anticancer screen, dose series, 48 h).

Row | Structure (SMILES) | GI50 [µM] | TGI
5 | COc1ccc(-c2nsc3c2NC(=O)CC3c2cccc(OC)c2)cc1 (stereo not drawn) | 1.3 | –
6 | Cn1cnnc1Sc1c([N+](=O)[O-])ncn1C | – | > 100 µM
7 | C=CCC1(CN(C)C)CC/C(=C\c2ccc(Cl)cc2)C1=O (stereo not drawn) | – | > 90.3 µM
8 | Cc1ccc2c(C3C(C#N)=C(N)Oc4cc5ccccc5cc43)cc(=O)oc2c1 (stereo not drawn) | 6.89 | > 100 µM
9 | C[Si](C)(C)/C(I)=C/CO | – | > 100 µM
10 | C[N+](C)(C)CC1CCC/C1=N\OC(=O)c1ccccc1 (stereo not drawn) | – | > 100 µM
11 | CC(=O)N1CCC(=O)/C(=C/c2ccccc2)C1 | – | > 100 µM
12 | O=C(Nc1cc(C(F)(F)F)ccc1Cl)c1cccc(NC2=C(Cl)C(=O)N(Cc3ccccc3)C2=O)c1 | > 100 | > 100 µM
13 | CCCCCCCN=C(N)c1ccc(N2CCN(c3ccc(C(N)=NCCCCCCC)cc3)CC2)cc1 | 2.75 | 7.67 µM
14 | C[Si](C)(C)/C(Br)=C\CCN1C(=O)CCC1=O | – | > 100 µM
15 | Cc1ccc(S(=O)OCc2c(C)c(C)c(COS(=O)c3ccc(C)cc3)c(C)c2C)cc1 (stereo not drawn) | – | > 100 µM
16 | C[C@]12CCC(=O)C=C1CC[C@@H]1C2CC[C@]2(C)Nc3[nH]ncc3CC12 (stereo partly drawn) | – | > 100 µM
17 | COc1ccc2c(c1)c[n+](C)c1c3cc(OC)c(OC)cc3ccc21 | 6.66 | 20 µM
18 | O=[P@@]1(c2ccccc2)O[C@H](COCc2ccccc2)[C@@H](OCc2ccccc2)[C@H](OCc2ccccc2)[C@H]1NCc1ccccc1 | 2.08 | 47.5 µM
19 | C[C@H]1CN[C@@H]2[C@@H](C)[C@H]3[C@@H](C[C@H]4[C@@H]5CC[C@H]6C[C@@H](N)CC[C@]6(C)[C@H]5CC[C@]34C)O[C@@]2(O)C1 | – | 9.52 µM
20 | CSc1ccccc1C#C/C=C\C#Cc1ccccc1N | 36.3 | 81 µM
21 | O=C1c2cc3c(cc2-c2c1c1cc(Cl)c(Cl)cc1c(=O)n2C[C@H](O)CO)OCO3 | < 0.01 | 0.0786 µM
22 | CC(C)(C)[Si](C)(C)OC1C(=O)C[C@H]2CCCC[C@@H]12 (stereo partly drawn) | – | > 100 µM

Row | Structure (SMILES) | GI50 [µM] | TGI
23 | CCN(CC)CCSc1c2ccccc2nc2c(OC)ccc(OC)c12 | – | > 70 µM
24 | [N-]=[N+]=N/C1=C/CCCCC(=O)C1 | – | > 100 µM
25 | CCc1c(Cl)c(C)cc(O)c1Cl | – | > 100 µM
26 | C=COC(=O)N[C@H]1CCc2cc(OC)c(OC)c(OC)c2-c2ccc(SC)c(=O)cc21 | – | 14.4 µM
27 | Cc1ccc(NC(=O)CCc2nnc(N)o2)cc1 | – | > 100 µM
28 | Cc1cc(N(CCCNc2ccnc3cc(Cl)ccc23)Cc2ccc3c(c2)OCO3)nc(N2CCOCC2)n1 | 0.204 | 0.626 µM
29 | CCOC(=O)C1SC(=Nc2ccccc2)N=C1C (stereo not drawn) | – | 88.7 µM
30 | O=C1CCC(=O)c2c1c(O)c1ccncc1c2O | – | 34.7 µM
31 | C=CCN1CCC23c4c5ccc(O)c4OC2C(=NN=C2CCC4(O)C6Cc7ccc(O)c8c7C4(CCN6CC=C)C2O8)CCC3(O)C1C5 (stereo not drawn) | – | 34.2 µM
32 | CN(C)CCNC(=O)c1cccc2c(Nc3ccc(S(=O)(=O)N=C(N)N)cc3)c3ccccc3nc12 | – | 43.8 µM
33 | COC(=O)C1=C(C(=O)OC)C2=S(SC3=C2CCCC3)S1 (stereo not drawn) | – | 62.7 µM
34 | O=C(Nc1ccc(Cl)c(C(F)(F)F)c1)c1ccc(NC2=C(Cl)C(=O)N(Cc3ccccc3)C2=O)cc1 | 13.8 | 33.9 µM
35 | COC(=O)c1ccc(-c2c(C#N)[n+](=O)c3cc(Cl)c(Cl)cc3n2[O-])cc1 | 20.2 | 39.8 µM
36 | CC1(C)CC(=O)CC(=Nc2ccc([N+](=O)[O-])cc2)C1 | – | > 100 µM
37 | C/C(=N\NC(=S)N1CCCCCC1)c1ccccn1 | 0.277 | 1.18 µM and 2.54 µM
38 | Oc1ccc2ccccc2c1N=Nc1ccc(Br)cc1 | – | > 100 µM
39 | CC(C)=CCc1cc2c(cc1O)OC[C@H]1c3cc4c(cc3O[C@@H]21)OCO4 | – | > 100 µM
40 | COc1ccc(Cn2c(N)c(S(=O)(=O)c3ccc(Cl)cc3)c3nc(C#N)c(C#N)nc32)cc1 | > 50 | > 50 µM
